Results as given in patent publication US6635242B2, “Broad spectrum microbicidal and spermicidal compositions, devices, and methods” (The Pennsylvania State University, priority 1998, dated 2003).

Key:
HPV 11 = assay: Human papilloma induction: HPV 11 in human foreskin xenografts in athymic mice; type: in vivo, human papillomavirus
Protocol: Stocks of experimentally generated infectious HPV 11 were prepared and represented 10% w/v cell free extracts of virus in PBS. Undiluted aliquots of virus stocks (39 μl ) were mixed with a 40×solution of SDS 1 μl ), incubated at 37° C. for 10 min and immediately used to infect split thickness grafts of newborn human foreskin epithelium. Virus was not subsequently diluted. Control grafts were infected with untreated virus stock. Virus adsorption was for 1 hr at 37° C. […] Grafts were then transplanted beneath the renal capsule of athymic mice. Animals were maintained in isolator bubbles with antibiotic supplemented drinking water in the animal colony of the Hershey Medical Center. Three months following infection, animals were sacrificed, their kidneys were removed, and the xenografts were grossly examined. The remaining organs were examined for any apparent abnormalities and none were found. Portions of each graft were immediately fixed in 10% neutral-buffered formalin and processed by standard histologic techniques for staining with hematoxylin and eosin.
Standard stocks of HPV 11 were used as undiluted virus. These virus stocks normally induce Condylomata in 90-100% of infected xenografts when diluted 1000 fold. […] Infection was then carried out for 1 hr and the grafts subsequently transplanted in vivo. Eight animals (16 kidneys) received grafts infected with SDS treated virus and 9 animals (17 kidneys) received normal virus. […] In the normal infections, 17 of 17 grafts survived and of these, 14 were transformed morphologically upon histologic examination and had typical papillomatous appearance.

HIV-1 (strain IIIB) = assay: HIV-1 inactivation assay (HeLa-CD4-LTR-β-gal indicator cells); type: cell-based; conditions: 10 min 37° C.
Protocol: One day prior to the assay, HeLa-CD4-LTR-β-gal cells were seeded into 12-well culture dishes at a concentration of 8×10^4 cells per well. A high titer (10^7.17 TCID50/ml) virus stock of HIV-1 (strain IIIB; Advanced Biotechnologies, Inc., Columbia, Md.) was diluted 1:10 with RPMI 1640 supplemented with 10% FBS. To assess viral inactivation by SDS, 78 μl of diluted virus were mixed with 2 μl of detergent solution, and incubated for 10 min at 37° C. After the inactivation period, the virus and detergent were diluted with 720 μl R10 (1:10) supplemented with DEAE dextran (20 μg/ml final concentration). Aliquots of treated virus (300 μl) were then added to duplicate wells of HeLa cells and incubated at 37° C. for 2 hr. Following viral adsorption, 2 ml of fresh media (DMEM supplemented with 10% FBS, 0.1 mg/ml G418, and 0.05 mg/ml hygromycin B) were added to each well. After incubation at 37° C. and 5% CO2 for 48 hr post-infection, cells were fixed and stained for β-galactosidase expression.
It is established that N-9 can inactivate HIV-1. We compared inactivation of HIV-1 by a second non-ionic detergent, C31G, and by SDS. High titer virus stocks of HIV-1 were incubated with either C31G or SDS and then virus was assayed on indicator cells expressing β-gal under the control of the HIV-1 LTR. After 48 hours, cells were stained and the number of cells expressing increased β-gal counted. […].

BPV-1 = BPV-1 focus assay in C127 mouse cells; type: cell-based, bovine papillomavirus; conditions: for foci/plate Exp. 2 Day 14 / foci/plate Exp. 2 Day 17: 37° C. 10 minutes; for foci/plate Exp. 2 Day 14 / foci/plate Exp. 2 Day 17 / foci/plate Exp. 1 day 12: diluted 1:1000; for foci/plate Exp. 1 day 12: 37° C. 30 minutes
Protocol: Cell-free stocks of BPV-1 were prepared by extraction (10% w/v) of epidermal bovine warts in phosphate buffered saline (PBS). In order to detect the transforming ability of BPV-1, C127 mouse cells were seeded (3×10^5 cells per flask) into T-25^2 flasks. After 24 hr of growth, subconfluent cells were infected with BPV-1. For the positive controls, stock virus (20 μl) was diluted (1:1) with PBS, incubated at 37° C. for 10 min, diluted […] and then added (100 μl ) into the 5 ml of cell culture medium present on the cells. Cells were refed at 24 hours and subsequently 2 times weekly. The presence of morphologically transformed foci was counted after 2 weeks and then again at 3 weeks.
Virus inactivations were carried out in vitro by addition of concentrated SDS solutions to the virus stocks (20 μl of virus plus 20 μl of detergent) and subsequent incubation at 37° C. for 10 or 30 min as indicated. Following inactivation, virus was diluted 1000 fold to lower the detergent concentration and the preparations were immediately used for infection as above.
Although SDS could effectively reduce HSV-2 infectivity, it remained possible that this destruction was mediated by envelope removal. Because papillomaviruses are non-enveloped, the possibility remained that SDS would fail to inactivate these viruses. We utilized BPV-1 as a prototype PV because of its ability to rapidly (within 2 weeks) form multi-layered transformed foci in mouse fibroblasts in an in vitro assay. Table 3 describes results of two separate experiments in which stocks of BPV-1 were incubated at 37° C. with various concentrations of SDS (5% to 5×10^−4%) for either 10 or 30 minutes, diluted to lower the SDS concentration (to avoid cell toxicity) and then used to infect C127 cells. […] Table 4 lists several other commercially available detergents that were tested for possible inactivation of BPV-1. None of these detergents inactivated the morphologic transforming properties of the BPV-1.

Bovine sperm = Bovine sperm motility following detergent addition; type: cell-based; parameters: key to Bovine Sperm Motility Following Detergent Addition: +++: Vigorous swimming; ++/−: Many swimmers/some dead; +/−: Occasional swimmer/most dead; −: All dead
Text: The following data represent an in vitro experiment to test the efficacy of SDS and other detergents as spermicidal agents. Frozen samples of bull semen were obtained, thawed and placed in a test tube. Aliquots were taken out and put in a separate test tube where they were mixed with detergent (SDS, C31G, N-9 or a mixture of SDS and N-9) to a final percent as listed in Tables 8 and 9 below. After mixing, the samples were immediately placed on a microscope slide and visually examined for sperm movement. The experiment was conducted one sample at a time so that the visual examination was conducted immediately after addition of detergent to the sample. As a result, indications in the table of complete inactivation indicate virtually instantaneous inactivation of the sperm. […] Occasional swimmers means very few, on the order of approximately 1% of the population of sperm present in the sample, indicating approximately 99% of the sperm were inactivated by the detergent.

[1] = 0.025 % SDS during treatment (as printed in Table 5), grafts harvested after three months
[2] = undiluted HPV 11 treated with 0.05% SDS, 37° C. 10 min
[3] = 2.5 × 10^−3 % SDS during treatment
[4] = 5 × 10^−2 % SDS during treatment
[5] = 5 × 10^−3 % SDS during treatment
[6] = 5 × 10^−4 % SDS during treatment

SMILES: CCCCCCCCCCCCOS(=O)(=O)[O-].[Na+] [SDS, Sodium dodecyl sulfate]
- surviving grafts/ transplanted grafts (HPV 11; [1]): 13/16
- total papillomas (HPV 11; [1]): 0
- prevention of HPV 11 infection of xenografts (HPV 11; [2]): effectively prevented virus infection
- xenografts showing viable tissue at harvest (normal, viable differentiating human epithelium) (HPV 11; [2]): 13 out of 16
- concentration (as low as) giving total inactivation of HIV-1 (HIV-1 (strain IIIB)): 0.025%
- foci/plate Exp. 2 Day 14 (BPV-1; [3]): 273
- foci/plate Exp. 2 Day 17 (BPV-1; [3]): 162
- foci/plate Exp. 1 day 12 (BPV-1; 5 % SDS during treatment): 0
- foci/plate Exp. 1 day 12 (BPV-1; 5 × 10^−1 % SDS during treatment): 0
- foci/plate Exp. 2 Day 14 (BPV-1; [4]): 0
- foci/plate Exp. 2 Day 17 (BPV-1; [4]): 0
- foci/plate Exp. 1 day 12 (BPV-1; [4]): 0
- foci/plate Exp. 2 Day 14 (BPV-1; [5]): 271
- foci/plate Exp. 2 Day 17 (BPV-1; [5]): 150
- foci/plate Exp. 1 day 12 (BPV-1; [5]): 0
- foci/plate Exp. 2 Day 14 (BPV-1; [6]): 229
- foci/plate Exp. 2 Day 17 (BPV-1; [6]): 151
- relative potency in dose response curves (BPV-1; compared with other alkyl sulfate group members): most potent
- inactivation of BPV-1 morphologic transformation of C127 cells (BPV-1; detergent 1% final concentration, 37° C., 10 min): completely eliminated virus foci
- concentration (as low as) that totally inactivates BPV-1 transforming ability (BPV-1; treatment of the virus at 37° C. for 10 minutes): 0.05%
- concentration (as low as) that totally inactivates BPV-1 transforming ability (BPV-1; treatment of the virus at 37° C. for 30 minutes): 0.005%
- Bovine Sperm Motility Following Detergent Addition (Bovine sperm; Table 8, 0.0125% detergent): +/−
- timing of sperm inactivation (Bovine sperm; Table 8, 0.0125% detergent, delayed = approximately 10 minutes): (delayed)
- Bovine Sperm Motility Following Detergent Addition (Bovine sperm; Table 8, 0.025% detergent): −
- Bovine Sperm Motility Following Detergent Addition (Bovine sperm; Table 8, 0.5% detergent): −
- Bovine Sperm Motility Following Detergent Addition (Bovine sperm; Table 8, 1% detergent): −
- Bovine Sperm Motility Following Detergent Addition (Bovine sperm; Table 8, 2% detergent): −
- Bovine Sperm Motility Following Detergent Addition (Bovine sperm; Table 9, 0.125% detergent): ++/−
- Bovine Sperm Motility Following Detergent Addition (Bovine sperm; Table 9, 0.25% detergent): ++/−
- Bovine Sperm Motility Following Detergent Addition (Bovine sperm; Table 9, 0.5% detergent): ++/−
- Bovine Sperm Motility Following Detergent Addition (Bovine sperm; Table 9, 1% detergent): ++/−
- Bovine Sperm Motility Following Detergent Addition (Bovine sperm; Table 9, 2% detergent): +/−
